# Legend:
# [1] = system: neutrophils in the lung allograft; experiment: Number of neutrophils infiltrated into lung grafts; assay type: in vivo, rat; conditions: day 7
# Method: Transplant Model. Rat left-lung transplantation was performed in a RT1 (MHC) incompatible donor-recipient combination from a BN donor into a F344 recipient. Complete graft rejection in this severely mismatched combination would be expected histologically and radiographically on day 7 postoperatively. The orthotopic left-lung transplantation procedure used in this study was a modification of the ‘cuff’ technique for vascular anastomosis (Mizuta et al., 1989). In brief, the lung grafts were flushed and immersed in ice-cold normal saline solution before implantation. Cuffs with internal diameters of 1.65 mm and 2.20 mm for pulmonary arterial and venous anastomosis, respectively, were used. […] Acute rejection was evaluated histologically and assigned a rejection score (RS) based on the clinical international working formulation: IWF grade 0, no significant abnormality; grade 1, scattered infrequent perivascular mononuclear infiltration; grade 2, frequent perivascular mononuclear infiltration; grade 3, extension of mononuclear infiltration into alveolar septum/space; and grade 4, diffuse perivascular, interstitial, and air space infiltration of mononuclear cells. The number of neutrophils was counted in a blinded fashion in 10 random fields per slide at ×1000 magnification. […] The data were expressed as mean±standard deviation. […]
# [2] = system: lung allograft (BN donor into F344 recipient); experiment: Macroscopic findings of the allograft on day 7; assay type: in vivo, rat; conditions: controls: complete consolidation without aeration
# Method: Transplant Model. Rat left-lung transplantation was performed in a RT1 (MHC) incompatible donor-recipient combination from a BN donor into a F344 recipient. Complete graft rejection in this severely mismatched combination would be expected histologically and radiographically on day 7 postoperatively. The orthotopic left-lung transplantation procedure used in this study was a modification of the ‘cuff’ technique for vascular anastomosis (Mizuta et al., 1989). In brief, the lung grafts were flushed and immersed in ice-cold normal saline solution before implantation. Cuffs with internal diameters of 1.65 mm and 2.20 mm for pulmonary arterial and venous anastomosis, respectively, were used. The left main bronchus was anastomosed using 8-0 prolene running sutures. In rats, radiographic assessment of a left-lung transplantation graft can be obscured by the right lung. Therefore, a postcaval lobectomy on the recipient's right lung was performed immediately after implantation so as to facilitate radiographic assessment of the left-lung allograft. […] Experimental groups. Recipient animals were divided into 4 groups (Table 1). Animals from group A (early administration; n=6) received 0.5 ml of phosphate-buffered saline (PBS) solution containing a 10.0 mg/kg concentration of antileukinate intramuscularly 24 hours before (day −1) and immediately after transplantation (day 0). […]
# [3] = system: lung allograft rejection (BN donor into F344 recipient); experiment: Radiographic evaluation (aeration score) of transplanted lungs; assay type: in vivo, rat; conditions: for aeration score (AS) of representative chest radiograph: day 7
# Method: Methods. Orthotopic left lung allotransplantation was performed from Brown Norway (donor) to Fisher 344 (recipient) rats. The role of activated neutrophils in the development of allograft rejection is believed to be biphasic. Therefore, specific CXC receptor inhibition was used with antileukinate in two dosing regimens. Recipients were allocated into 4 groups: A (early administration: n=6) received two doses of antileukinate (a hexapeptide), 10.0 mg/kg intramuscularly 24 hours before and immediately after transplantation, B (continuous administration: n=8) animals continuously received antileukinate intraperitoneally (10.0 mg/kg/day) for 7 days after surgery. Experimental groups A or B were compared with their individual control that received saline alone (Cont-A and Cont-B). The progression of rejection was assessed radiographically. Each animal was sacrificed on day 7 for histologic evaluation of allograft rejection based on pathologic rejection grade. Transplant Model. Rat left-lung transplantation was performed in a RT1 (MHC) incompatible donor-recipient combination from a BN donor into a F344 recipient. Complete graft rejection in this severely mismatched combination would be expected histologically and radiographically on day 7 postoperatively. The orthotopic left-lung transplantation procedure used in this study was a modification of the ‘cuff’ technique for vascular anastomosis (Mizuta et al., 1989). In brief, the lung grafts were flushed and immersed in ice-cold normal saline solution before implantation. Cuffs with internal diameters of 1.65 mm and 2.20 mm for pulmonary arterial and venous anastomosis, respectively, were used. The left main bronchus was anastomosed using 8-0 prolene running sutures. In rats, radiographic assessment of a left-lung transplantation graft can be obscured by the right lung. Therefore, a postcaval lobectomy on the recipient's right lung was performed immediately after implantation so as to facilitate radiographic assessment of the left-lung allograft. […] Experimental groups. Recipient animals were divided into 4 groups (Table 1). Animals from group A (early administration; n=6) received 0.5 ml of phosphate-buffered saline (PBS) solution containing a 10.0 mg/kg concentration of antileukinate intramuscularly 24 hours before (day −1) and immediately after transplantation (day 0). The control group against group A (Cont-A) received 0.5 ml of PBS in a similar fashion. Allograft recipients from group B (continuous administration; n=8) were given continuous antileukinate administration intraperitoneally for 7 days after transplantation, starting immediately after surgery using a micro-osmotic pump which was implanted into the peritoneal cavity two hours before lung transplantation. Antileukinate was released into the recipient's peritoneal cavity continuously at a dose of 10.0 mg/kg/day from days 0 to 7. Animals from Cont-B served as the control group against group B receiving the same amount of PBS without antileukinate in the same manner. Implantation of micro-osmotic pumps for groups B and Cont-B. Micro-osmotic pumps (model 2001; Alzet Corp., distributed by Charles River Laboratories, Sulzfeld, Germany) were used for intraperitoneal delivery of antileukinate. […] Transplanted lungs were serially assessed every other day by chest roentgenogram under spontaneous ventilation with halothane for sedation. […] Briefly, it was evaluated and graded 0 for an opaque lung, and up to 6 for a normal-appearing lung. […]
# [4] = system: lung allograft rejection (BN donor into F344 recipient); experiment: Histological evaluation of acute rejection (IWF rejection score) of rat lung allografts on day 7; assay type: in vivo
# Method: Methods. Orthotopic left lung allotransplantation was performed from Brown Norway (donor) to Fisher 344 (recipient) rats. The role of activated neutrophils in the development of allograft rejection is believed to be biphasic. Therefore, specific CXC receptor inhibition was used with antileukinate in two dosing regimens. Recipients were allocated into 4 groups: A (early administration: n=6) received two doses of antileukinate (a hexapeptide), 10.0 mg/kg intramuscularly 24 hours before and immediately after transplantation, B (continuous administration: n=8) animals continuously received antileukinate intraperitoneally (10.0 mg/kg/day) for 7 days after surgery. Experimental groups A or B were compared with their individual control that received saline alone (Cont-A and Cont-B). The progression of rejection was assessed radiographically. Each animal was sacrificed on day 7 for histologic evaluation of allograft rejection based on pathologic rejection grade. Transplant Model. Rat left-lung transplantation was performed in a RT1 (MHC) incompatible donor-recipient combination from a BN donor into a F344 recipient. Complete graft rejection in this severely mismatched combination would be expected histologically and radiographically on day 7 postoperatively. […]
# [5] = group B (continuous administration)
substance,measurement,setting,value
Ac-RRWWCR-NH2 [antileukinate],neutrophil count in the graft,"[1]; group A: 10.0 mg/kg im day -1 and day 0, Cont-A 55.7±10.0, p=0.093",34.8±28.7 /10HPFs
same,neutrophil count in the graft,"[1]; group B: continuous ip 10.0 mg/kg/day, Cont-B 47.9±18.4, p=0.046",32.1±9.6 /10 HPFs
same,macroscopic finding of the allograft,[2]; group A (early administration),macroscopically adequate ventilation
same,macroscopic finding of the allograft,[2]; [5],macroscopically adequate ventilation
same,aeration score versus control at each time point,[3]; group A (early administration) versus Cont-A,No significant differences
same,aeration score (AS) of representative chest radiograph,[3]; group A (early administration),6
same,aeration score versus control at each time point,[3]; group B (continuous administration) versus Cont-B,No significant differences
same,aeration score (AS) of representative chest radiograph,[3]; [5],5
same,"aeration score (AS) on day 7, mean±standard deviation","[3]; group B: continuous ip 10.0 mg/kg/day, Cont-B 1.6±1.3, p=0.16, score 0=opaque to 6=normal-appearing lung",2.6±2.1
same,rejection score (RS) of representative allograft,"[4]; group B (continuous administration), day 7, representative histology",1
same,"histologic rejection score (IWF), mean±standard deviation","[4]; group B: continuous ip 10.0 mg/kg/day days 0 to 7, n=8, day 7, Cont-B 3.3±0.5, p=0.018, scale 0-4",2.1±1.0
